Experimental data reported in article PMC5218480 (PLoS ONE, 2017).

Tested on: MV-4-11 cells
Assay: Gene expression microarray analysis (Affymetrix PrimeView) and GSEA
Assay type: cell-based, human
Set-up: RFU PODN (11730768_x_at) / Fold change /veh PODN (11730768_x_at) / RFU LINC00158 (11744669_a_at) / Fold change /veh LINC00158 (11744669_a_at) / RFU DUSP10 (11751237_a_at) / Fold change /veh DUSP10 (11751237_a_at) / RFU ID3 (11757404_x_at) / Fold change /veh ID3 (11757404_x_at) / RFU PLEKHG5 (11737974_s_at) / Fold change /veh PLEKHG5 (11737974_s_at) / RFU LRRC4B (11730491_at) / Fold change /veh LRRC4B (11730491_at) / RFU GIMAP4 (11747438_a_at) / Fold change /veh GIMAP4 (11747438_a_at) / RFU KRT8 (11758183_x_at) / Fold change /veh KRT8 (11758183_x_at) / RFU CNN1 (11734310_a_at) / Fold change /veh CNN1 (11734310_a_at) / RFU VPS37D (11726825_at) / Fold change /veh VPS37D (11726825_at) / RFU C10orf10 (11716522_x_at) / Fold change /veh C10orf10 (11716522_x_at) / RFU KIR2DL2 /// KIR2DL4 /// KIR2DL5A /// KIR2DL5B /// KIR2DS1 /// KIR2DS2 /// KIR2DS3 /// KIR2DS4 /// KIR3DL3 /// KIR3DL3 /// KIR3DS1 (11738374_at) / Fold change /veh KIR2DL2 /// KIR2DL4 /// KIR2DL5A /// KIR2DL5B /// KIR2DS1 /// KIR2DS2 /// KIR2DS3 /// KIR2DS4 /// KIR3DL3 /// KIR3DL3 /// KIR3DS1 (11738374_at) / RFU C1QL1 (11718748_at) / Fold change /veh C1QL1 (11718748_at) / RFU TMPRSS4 (11747572_a_at) / Fold change /veh TMPRSS4 (11747572_a_at) / RFU HAMP (11756126_x_at) / Fold change /veh HAMP (11756126_x_at) / RFU RNFT2 (11725882_a_at) / Fold change /veh RNFT2 (11725882_a_at) / RFU NR4A2 (11747474_a_at) / Fold change /veh NR4A2 (11747474_a_at) / RFU ABCC12 (11746883_a_at) / Fold change /veh ABCC12 (11746883_a_at) / RFU TMEM136 (11760407_x_at) / Fold change /veh TMEM136 (11760407_x_at) / RFU CLDN22 /// WWC2 (11732394_at) / Fold change /veh CLDN22 /// WWC2 (11732394_at) / RFU HLA-DPB1 (11760878_x_at) / Fold change /veh HLA-DPB1 (11760878_x_at) / RFU SPINT1 (11716480_a_at) / Fold change /veh SPINT1 (11716480_a_at) / RFU GAP43 (11754022_s_at) / Fold change /veh GAP43 (11754022_s_at) / RFU A4GNT (11735810_at) / Fold change /veh A4GNT (11735810_at) / RFU PRB3 (11715151_x_at) / Fold change /veh PRB3 (11715151_x_at) / RFU TUBB4B (11761932_at) / Fold change /veh TUBB4B (11761932_at) / RFU CAPN14 (11732068_a_at) / Fold change /veh CAPN14 (11732068_a_at) / RFU TMCC2 (11721928_a_at) / Fold change /veh TMCC2 (11721928_a_at) / RFU IRGQ (11745062_a_at) / Fold change /veh IRGQ (11745062_a_at) / RFU FAM174B (11720279_a_at) / Fold change /veh FAM174B (11720279_a_at) / RFU TMPRSS4 (11748680_a_at) / Fold change /veh TMPRSS4 (11748680_a_at) / RFU FAM212B (11763350_a_at) / Fold change /veh FAM212B (11763350_a_at) / RFU PLEKHG5 (11743358_a_at) / Fold change /veh PLEKHG5 (11743358_a_at) / RFU ZSCAN30 (11745921_a_at) / Fold change /veh ZSCAN30 (11745921_a_at) / RFU CMKLR1 (11741424_a_at) / Fold change /veh CMKLR1 (11741424_a_at) / RFU LOC101060620 /// MAPK8IP1 (11723275_at) / Fold change /veh LOC101060620 /// MAPK8IP1 (11723275_at) / RFU SPTSSB (11747773_x_at) / Fold change /veh SPTSSB (11747773_x_at) / RFU PRSS12 (11739890_at) / Fold change /veh PRSS12 (11739890_at) / RFU BIN1 (11741810_x_at) / Fold change /veh BIN1 (11741810_x_at) / RFU WNT11 (11732464_a_at) / Fold change /veh WNT11 (11732464_a_at) / RFU C10orf10 (11716521_a_at) / Fold change /veh C10orf10 (11716521_a_at) / RFU C5orf56 (11738089_at) / Fold change /veh C5orf56 (11738089_at) / RFU CYB561 (11721691_x_at) / Fold change /veh CYB561 (11721691_x_at) / RFU ANKRD19P (11752326_a_at) / Fold change /veh ANKRD19P (11752326_a_at) / RFU OR2T12 /// OR2T33 /// OR2T8 (11738714_s_at) / Fold change /veh OR2T12 /// OR2T33 /// OR2T8 (11738714_s_at) / RFU VCAN (11748164_a_at) / Fold change /veh VCAN (11748164_a_at) / RFU JSRP1 (11732532_at) / Fold change /veh JSRP1 (11732532_at) / RFU KRTAP10-11 (11738290_x_at) / Fold change /veh KRTAP10-11 (11738290_x_at) / RFU MYO3A (11730013_a_at) / Fold change /veh MYO3A (11730013_a_at) / RFU EBF3 (11725865_a_at) / Fold change /veh EBF3 (11725865_a_at) / RFU CAMK2N1 (11719241_x_at) / Fold change /veh CAMK2N1 (11719241_x_at) / RFU C5orf56 (11738088_a_at) / Fold change /veh C5orf56 (11738088_a_at) / RFU OLFML3 (11715873_a_at) / Fold change /veh OLFML3 (11715873_a_at) / RFU LOC100653217 /// NTM (11731650_a_at) / Fold change /veh LOC100653217 /// NTM (11731650_a_at) / RFU MAPK11 (11762145_a_at) / Fold change /veh MAPK11 (11762145_a_at) / RFU FIZ1 (11724087_x_at) / Fold change /veh FIZ1 (11724087_x_at) / RFU OASL (11726364_x_at) / Fold change /veh OASL (11726364_x_at) / RFU SOX15 (11748057_x_at) / Fold change /veh SOX15 (11748057_x_at) / RFU CD79A (11719716_a_at) / Fold change /veh CD79A (11719716_a_at) / RFU HIST1H1D (11736915_at) / Fold change /veh HIST1H1D (11736915_at) / RFU CASKIN2 (11723855_a_at) / Fold change /veh CASKIN2 (11723855_a_at) / RFU LOC730098 (11760151_x_at) / Fold change /veh LOC730098 (11760151_x_at) / RFU OR4N2 (11742367_at) / Fold change /veh OR4N2 (11742367_at) / RFU PRRT2 (11749266_a_at) / Fold change /veh PRRT2 (11749266_a_at) / RFU SNX32 (11753110_a_at) / Fold change /veh SNX32 (11753110_a_at) / RFU CDHR5 (11726645_a_at) / Fold change /veh CDHR5 (11726645_a_at) / RFU RCAN1 (11760418_a_at) / Fold change /veh RCAN1 (11760418_a_at) / RFU FAM167A (11723789_a_at) / Fold change /veh FAM167A (11723789_a_at) / RFU FAM26E (11764081_at) / Fold change /veh FAM26E (11764081_at) / RFU ISYNA1 (11749810_s_at) / Fold change /veh ISYNA1 (11749810_s_at) / RFU ACY1 (11761880_at) / Fold change /veh ACY1 (11761880_at) / RFU 11764098_at / Fold change /veh 11764098_at / RFU SAMD14 (11745864_x_at) / Fold change /veh SAMD14 (11745864_x_at) / RFU NPB (11741838_a_at) / Fold change /veh NPB (11741838_a_at) / RFU TMPRSS6 (11731388_a_at) / Fold change /veh TMPRSS6 (11731388_a_at) / RFU KRTAP10-2 (11738614_at) / Fold change /veh KRTAP10-2 (11738614_at) / RFU ARHGAP8 /// PRR5-ARHGAP8 (11727945_x_at) / Fold change /veh ARHGAP8 /// PRR5-ARHGAP8 (11727945_x_at) / RFU KRTAP5-7 /// NADSYN1 (11734609_at) / Fold change /veh KRTAP5-7 /// NADSYN1 (11734609_at) / RFU RASL12 (11751679_a_at) / Fold change /veh RASL12 (11751679_a_at) / RFU CDKN2B (11736163_a_at) / Fold change /veh CDKN2B (11736163_a_at) / RFU PRF1 (11729649_at) / Fold change /veh PRF1 (11729649_at) / RFU, ZNF638 /// ZNF638-IT1 / Fold change vs veh, ZNF638 /// ZNF638-IT1 / RFU, PANK3 / Fold change vs veh, PANK3 / RFU, SH3YL1 / Fold change vs veh, SH3YL1 / RFU, ZEB2 / Fold change vs veh, ZEB2 / RFU, NRIP1 / Fold change vs veh, NRIP1 / RFU, PTTG1IP / Fold change vs veh, PTTG1IP / RFU, CAPN2 / Fold change vs veh, CAPN2 / RFU, MED14 / Fold change vs veh, MED14 / RFU, SNORA58 / Fold change vs veh, SNORA58 / RFU, C1orf63 / Fold change vs veh, C1orf63 / RFU, LRRFIP1 / Fold change vs veh, LRRFIP1 / RFU, NDUFAF7 / Fold change vs veh, NDUFAF7 / RFU, SLC12A2 / Fold change vs veh, SLC12A2 / RFU, IBTK / Fold change vs veh, IBTK / RFU, ESF1 / Fold change vs veh, ESF1 / Fold change vs veh, TMEM50B / RFU, TAOK1 / Fold change vs veh, TAOK1 / RFU, ACBD3 / Fold change vs veh, ACBD3 / RFU, TMA16 / Fold change vs veh, TMA16 / RFU, RWDD3 / Fold change vs veh, RWDD3 / RFU, BCAT1 / Fold change vs veh, BCAT1 / RFU, EDEM3 / Fold change vs veh, EDEM3 / RFU, TMEM33 / Fold change vs veh, TMEM33 / RFU, WDR75 / Fold change vs veh, WDR75 / RFU, AHCTF1 / Fold change vs veh, AHCTF1 / RFU, TFRC / Fold change vs veh, TFRC / RFU, ZDHHC17 / Fold change vs veh, ZDHHC17 / RFU, NOM1 / Fold change vs veh, NOM1 / RFU, ARL8B / Fold change vs veh, ARL8B / RFU, ZBTB11 / Fold change vs veh, ZBTB11 / RFU, TAMM41 / Fold change vs veh, TAMM41 / RFU, KIAA1704 /// LOC100996395 / Fold change vs veh, KIAA1704 /// LOC100996395 / RFU, ING1 / Fold change vs veh, ING1 / RFU, TRMT61B / Fold change vs veh, TRMT61B / RFU, FUBP3 / Fold change vs veh, FUBP3 / RFU, TP53 / Fold change vs veh, TP53 / RFU, TNKS2 / Fold change vs veh, TNKS2 / RFU, ZFP14 / Fold change vs veh, ZFP14 / RFU, ACTR2 / Fold change vs veh, ACTR2 / RFU, PPP3R1 / Fold change vs veh, PPP3R1 / RFU, PIK3R1 / Fold change vs veh, PIK3R1 / RFU, HNRNPA1 / Fold change vs veh, HNRNPA1 / RFU, RNF170 / Fold change vs veh, RNF170 / RFU, ZNF28 / Fold change vs veh, ZNF28 / RFU, RNGTT / Fold change vs veh, RNGTT / RFU, OGT / Fold change vs veh, OGT / RFU, BRD1 / Fold change vs veh, BRD1 / RFU, MARS / Fold change vs veh, MARS / RFU, ZNF655 / Fold change vs veh, ZNF655 / RFU, FAHD1 / Fold change vs veh, FAHD1 / RFU, BDP1 / Fold change vs veh, BDP1 / RFU, LRRCC1 / Fold change vs veh, LRRCC1 / RFU, ARID1A / Fold change vs veh, ARID1A / RFU, ZNF146 / Fold change vs veh, ZNF146 / RFU, ZNF330 / Fold change vs veh, ZNF330 / RFU, GPN3 / Fold change vs veh, GPN3 / RFU, C9orf123 / Fold change vs veh, C9orf123 / RFU, N4BP2L2 / Fold change vs veh, N4BP2L2 / RFU, ARFIP1 / Fold change vs veh, ARFIP1 / RFU, FAM179B / Fold change vs veh, FAM179B / RFU, BCL10 / Fold change vs veh, BCL10 / RFU, UHRF1BP1L / Fold change vs veh, UHRF1BP1L / RFU, BET1 / Fold change vs veh, BET1 / RFU, CNOT2 / Fold change vs veh, CNOT2 / RFU, ZNF268 / Fold change vs veh, ZNF268 / Fold change vs veh, ZNF507 / RFU, DGCR2 / Fold change vs veh, DGCR2 / RFU, WDSUB1 / Fold change vs veh, WDSUB1 / Fold change vs veh, HSP90B1 /// MIR3652 / RFU, ADSS / Fold change vs veh, ADSS / RFU, GK / Fold change vs veh, GK / RFU, ZNF148 / Fold change vs veh, ZNF148 / RFU, TAF9 / Fold change vs veh, TAF9 / RFU, SLC1A5 / Fold change vs veh, SLC1A5 / RFU, SLMO2 / Fold change vs veh, SLMO2 / RFU, ABCC4 / Fold change vs veh, ABCC4 / RFU, LOC101060439 /// RAP1B / Fold change vs veh, LOC101060439 /// RAP1B / RFU, RFX7 / Fold change vs veh, RFX7 / RFU, GTPBP10 / Fold change vs veh, GTPBP10 / RFU, CNEP1R1 / Fold change vs veh, CNEP1R1 / RFU, BIVM-ERCC5 /// ERCC5 / Fold change vs veh, BIVM-ERCC5 /// ERCC5 / RFU, ILF3 / Fold change vs veh, ILF3 / RFU 11762660_at / Fold change /veh 11762660_at / RFU VCAN (11757783_s_at) / Fold change /veh VCAN (11757783_s_at) / RFU DDX43 (11728927_at) / Fold change /veh DDX43 (11728927_at) / RFU KRT8 (11758188_x_at) / Fold change /veh KRT8 (11758188_x_at) / RFU NKD1 (11759106_at) / Fold change /veh NKD1 (11759106_at) / RFU SRD5A1 (11742802_a_at) / Fold change /veh SRD5A1 (11742802_a_at) / RFU TPSAB1 /// TPSB2 (11721975_s_at) / Fold change /veh TPSAB1 /// TPSB2 (11721975_s_at) / RFU GSTM3 (11746129_a_at) / Fold change /veh GSTM3 (11746129_a_at) / RFU IL23R (11737362_x_at) / Fold change /veh IL23R (11737362_x_at) / RFU TMEM51 (11727254_a_at) / Fold change /veh TMEM51 (11727254_a_at) / RFU PIWIL2 (11732686_x_at) / Fold change /veh PIWIL2 (11732686_x_at) / RFU ORM1 (11744905_x_at) / Fold change /veh ORM1 (11744905_x_at) / RFU CCDC152 (11743942_at) / Fold change /veh CCDC152 (11743942_at) / RFU ECM1 (11717891_a_at) / Fold change /veh ECM1 (11717891_a_at) / RFU IL23R (11748794_a_at) / Fold change /veh IL23R (11748794_a_at) / RFU TNFAIP8L3 (11732012_x_at) / Fold change /veh TNFAIP8L3 (11732012_x_at) / RFU MBOAT4 (11741988_at) / Fold change /veh MBOAT4 (11741988_at) / RFU 11764193_at / Fold change /veh 11764193_at / RFU TMEM53 (11763286_at) / Fold change /veh TMEM53 (11763286_at) / RFU MAGEB2 (11727129_at) / Fold change /veh MAGEB2 (11727129_at) / RFU TMEM200A (11744735_a_at) / Fold change /veh TMEM200A (11744735_a_at) / RFU CCDC152 (11751479_a_at) / Fold change /veh CCDC152 (11751479_a_at) / RFU FAM211A (11726209_a_at) / Fold change /veh FAM211A (11726209_a_at) / RFU RGS16 (11746705_a_at) / Fold change /veh RGS16 (11746705_a_at) / RFU VCAN (11755009_s_at) / Fold change /veh VCAN (11755009_s_at) / RFU RHOB (11743442_s_at) / Fold change /veh RHOB (11743442_s_at) / RFU RGS16 (11720943_a_at) / Fold change /veh RGS16 (11720943_a_at) / RFU RGS16 (11720944_at) / Fold change /veh RGS16 (11720944_at) / RFU, VPS4B / Fold change vs veh, VPS4B / RFU, CREB1 / Fold change vs veh, CREB1 / RFU, DNAJC13 / Fold change vs veh, DNAJC13 / RFU, GNAQ / Fold change vs veh, GNAQ / RFU, CDK5R1 / Fold change vs veh, CDK5R1 / RFU, ZRANB3 / Fold change vs veh, ZRANB3 / RFU, CUL4A / Fold change vs veh, CUL4A / RFU, CCNY / Fold change vs veh, CCNY / RFU, UFL1 / Fold change vs veh, UFL1 / RFU, COG3 / Fold change vs veh, COG3 / RFU, DIAPH2 / Fold change vs veh, DIAPH2 / RFU, SKA2 / Fold change vs veh, SKA2 / RFU, AFF3 / Fold change vs veh, AFF3 / RFU, LMF1 / Fold change vs veh, LMF1 / RFU, IPO11 / Fold change vs veh, IPO11 / RFU, DFFB / Fold change vs veh, DFFB / RFU, FOXP1 / Fold change vs veh, FOXP1 / RFU, CARD8 / Fold change vs veh, CARD8 / RFU, STRN3 / Fold change vs veh, STRN3 / RFU, ADK / Fold change vs veh, ADK / RFU, RASSF2 / Fold change vs veh, RASSF2 / RFU, WIPF1 / Fold change vs veh, WIPF1 / RFU, LARP1B / Fold change vs veh, LARP1B / RFU, RASA1 / Fold change vs veh, RASA1 / RFU, RB1 / Fold change vs veh, RB1 / RFU, PPFIA1 / Fold change vs veh, PPFIA1 / RFU, MAT2A / Fold change vs veh, MAT2A / RFU, CCT5 / Fold change vs veh, CCT5 / RFU, WDR92 / Fold change vs veh, WDR92 / RFU, CUX1 / Fold change vs veh, CUX1 / RFU, TTC7A / Fold change vs veh, TTC7A / RFU, TMEM135 / Fold change vs veh, TMEM135 / RFU, DEPTOR / Fold change vs veh, DEPTOR / RFU, CPM / Fold change vs veh, CPM / RFU, DNAJB6 / Fold change vs veh, DNAJB6 / RFU, CACNA2D3 / Fold change vs veh, CACNA2D3 / RFU, DTX4 / Fold change vs veh, DTX4 / RFU, TFCP2 / Fold change vs veh, TFCP2 / RFU, GMCL1 /// GMCL1P1 / Fold change vs veh, GMCL1 /// GMCL1P1 / RFU, AEBP2 / Fold change vs veh, AEBP2 / RFU, SNHG1 /// SNORD22 /// SNORD25 /// SNORD26 /// SNORD27 /// SNORD28 /// SNORD29 /// SNORD31 / Fold change vs veh, SNHG1 /// SNORD22 /// SNORD25 /// SNORD26 /// SNORD27 /// SNORD28 /// SNORD29 /// SNORD31 / Fold change (Aza/veh), C12orf56 (ProbeSet 11735607_a_at) / Fold change (ACY-1035/veh), C12orf56 (ProbeSet 11735607_a_at) / Fold change (Aza/veh), FGFR1OP (ProbeSet 11751329_s_at) / Fold change (ACY-1035/veh), FGFR1OP (ProbeSet 11751329_s_at) / Fold change (Aza/veh), VPS36 (ProbeSet 11739960_a_at) / Fold change (ACY-1035/veh), VPS36 (ProbeSet 11739960_a_at) / RFU SYPL1 (11715823_x_at) / Fold change /veh SYPL1 (11715823_x_at) / RFU IGFBP7 (11715501_s_at) / Fold change /veh IGFBP7 (11715501_s_at) / RFU REEP3 (11722064_at) / Fold change /veh REEP3 (11722064_at) / RFU IGLL1 (11728026_x_at) / Fold change /veh IGLL1 (11728026_x_at): dose or concentration left out as unconfirmed
Conditions: ProbeSet 11732281_s_at; LIST D

Nc1ncn([C@@H]2O[C@H](CO)[C@@H](O)[C@H]2O)c(=O)n1 [azacitidine]
RFU, FOXP1: 174.32 RFU
